How the values were obtained:
[1] = Octanol-saline partition coefficient; assay type: physicochemical; details: octanol/phosphate buffered saline; radiolabelled drug 10-31 nM
Method: Briefly, an equal volume of octanol and phosphate buffered saline (PBS) were presaturated by vigorously vortexing them for 5 min. The suspension was allowed to settle for 10 min before the upper saturated octanol layer was carefully removed and stored in a separate tube. […] Then 540 μL aliquots of each compound were added to an equal volume of presaturated octanol and vortexed for 5 min. The samples were centrifuged (1000 g for 5 min). The concentrations of radiolabelled drug in a volume of the octanol (upper layer) and in a similar volume of saline (lower layer) were measured using scintillation counting. The octanol-saline partition coefficient was determined as a ratio of radiolabelled drug in the octanol phase to radiolabelled drug concentration in the saline phase.

[2] = system: CEM, CEMVBL (P-gp-overexpressing), CEME1000 (MRP1-overexpressing) and U937 cells; assay: Preliminary transport experiments in cell lines; assay type: in vitro ADME; details: data not shown; for concentration-dependent effect of unlabelled drug on accumulation of the labelled drugs: 0-100 μM unlabelled drug, CEM, CEMVBL, CEME1000 and U937 cells
[3] = system: PBMCs; assay: Cell fractionation: membrane-bound and intracellular radiolabelled drug in PBMCs; assay type: in vitro ADME, human; details: 50 μM ABC
Method: In a separate experiment, cells were incubated with the tritiated compounds ([^3H]-3TC, -ddI and -TDF) in the absence or presence of 50 μM ABC as described. The assay was terminated by rapid centrifugation in a chilled microcentrifuge and the cell pellets were washed three times in ice-cold PBS as described, followed by three times of rapid freezing in liquid nitrogen and thawing at room temperature. The suspension was layered on top of 1 mL of ice-cold 42% percoll solution containing 0.25 M sucrose, 1.5 mM magnesium chloride, pH 7.1, and centrifuged (12,000 g, 30 min at 4 °C). After centrifugation, the radioactivity in the clear supernatant (assumed as intracellular drug) and in the pellet/debris, harvested from the bottom of the gradient (assumed as membrane-bound drug) were determined by scintillation counting.

[4] = system: PBMCs; assay: Cellular association ratio (CAR) of radiolabelled drugs in PBMCs, drug-drug interaction; assay type: in vitro ADME, human; details: for effect of incubation at 4 °C on cell-associated concentration / cellular association ratio (CAR): PBMCs; for effect of incubation at 4 °C on cell-associated concentration: 4 °C vs 37 °C; for effect of unlabelled drug on CAR of [^3H]-ddI: 1 μM [^3H]-ddI; for effect of unlabelled drug on CAR of [^3H]-ddI / effect of unlabelled drug on CAR of [^3H]-TDF: dI 100 μM; for cellular association ratio (CAR): 1 μM labelled drug, 30–45 min, no interacting drug, mean ± S.D.; for effect of unlabelled drug on CAR of [^3H]-TDF: 1 μM [^3H]-TDF
Method: 11 PBMC samples were isolated from blood buffy coats using Lymphoprep (Alexis-sheild, Oslo, Norway), following the manufacturer's instructions. An aliquot of the PBMC samples were cryopreserved in fetal calf serum containing 10% dimethyl sulphoxide for batch analysis of membrane proteins by flow cytometry.
We also used 50 μM dipyridamole, 100 μM of deoxycytidine (dC), deoxyinosine (dI) and deoxyguanosine (dG) as positive controls to inhibit the transport of the drugs. The concentrations used of these inhibitors were based on previous observations. […] In a limited number of PBMC samples, we investigated the effects of two drug combinations on the uptake of labelled compounds as described above. The incubations were terminated by centrifugation (15,000 g, 1 min at 0 °C). A-100 μL aliquot of the supernatant was counted for radioactivity and the cell pellets were washed three times in ice-cold phosphate buffered saline followed by rapid centrifugation before the pellets were solubilised in 100 μL of distilled water as described previously and counted for radioactivity.

[5] = system: MRP; design: method as in PMID 17328866, PMID 17202245, PMID 19075072; details: cited from earlier work
[6] = system: P-gp; design: method as in PMID 11145192; details: cited from earlier work
[7] = system: P-gp; details: cited from earlier work
[8] = system: BCRP; design: method as in PMID 17202245; details: cited from earlier work
[9] = system: guinea-pig brain perfusion and choroid plexus models; details: cited from earlier work
[10] = unlabelled drugs 50 μM, dipyridamole 50 μM

Compound | Partition coefficient (mean ± SD) [1] | concentration-dependent effect of unlabelled drug on accumulation of the labelled drugs [2] | intracellular drug concentration, effect of ABC [3] | membrane-bound drug concentration, effect of ABC [3] | effect of incubation at 4 °C on cell-associated concentration [4] | inhibition of MRP activity [5] | further results
Nc1ccn([C@@H]2CS[C@H](CO)O2)c(=O)n1 [3TC, lamivudine] | 0.117 ± 0.0049 | no concentration-dependent effects | unaffected | significantly (P < 0.05) decreased | significantly (P < 0.001) reduced at 4 °C | inhibited | P-gp substrate ([2]; preliminary studies): not a P-gp substrate; P-gp substrate [6]: not a substrate
Nc1nc(NC2CC2)c2ncn([C@H]3C=C[C@@H](CO)C3)c2n1 [ABC, abacavir] | 7.065 ± 0.44 | no concentration-dependent effects |  |  | did not affect | inhibited | effect of unlabelled drug on CAR of [^3H]-ddI [4, 10]: no effect; cellular association ratio (CAR) [4]: 7.62 ± 1.32; inhibition of P-gp activity [7]: inhibited; BCRP inhibitory effect [8]: inhibits; effect on intracellular accumulation of [^3H]-ddI [9]: increased
CC(C)OC(=O)OCOP(=O)(CO[C@H](C)Cn1cnc2c(N)ncnc21)OCOC(=O)OC(C)C.O=C(O)/C=C/C(=O)O [TDF, Tenofovir disoproxil fumarate] |  | no concentration-dependent effects | unaffected | unaffected | significantly (P < 0.001) reduced at 4 °C | inhibited | effect of unlabelled drug on CAR of [^3H]-3TC ([4]; 1 μM [^3H]-3TC, unlabelled drugs 50 μM, dipyridamole 50 μM, dC 100 μM): significantly (P < 0.05) reduced uptake; effect of unlabelled drug on CAR of [^3H]-ddI [4, 10]: no effect; cellular association ratio (CAR) [4]: 2.20 ± 0.29; inhibition of P-gp activity [7]: inhibited; BCRP inhibitory effect [8]: devoid of any BCRP inhibitory effect
OC[C@@H](O)[C@@H](O)[C@H](O)[C@H](O)CO [[^14C]-Mannitol, mannitol] | 0.0022 ± 0.0001 |  |  |  |  |  | 
OC[C@H]1O[C@@H](n2cnc3c(O)ncnc32)C[C@@H]1O [dI, deoxyinosine] |  |  |  |  |  |  | effect of unlabelled drug on CAR of [^3H]-TDF [4, 10]: unaffected
O=c1[nH]cnc2c1ncn2[C@H]1CC[C@@H](CO)O1 [ddI, didanosine] |  |  | significantly (P < 0.05) decreased | unaffected | significantly (P < 0.001) reduced at 4 °C |  | 
OCCN(CCO)c1nc(N2CCCCC2)c2nc(N(CCO)CCO)nc(N3CCCCC3)c2n1 [dipyridamole] |  |  |  |  |  |  | effect of unlabelled drug on CAR of [^3H]-TDF [4, 10]: unaffected

From paper PMC3864238 (Pharmaceutics, 2011)
